Experimental data published in patent US20060116390A1, “Hepatitis c virus inhibitors” (priority 2003, published 2006).
Where two headings read alike, the source gives them in different places.

Test system: HCV proteins in Rep5.1 cells (replicon cell line)
Assay: Inhibitory activity of HCV: cell-based ELISA in replicon cell line Rep5.1 (decrease of HCV proteins)
Design: species or system hepatitis C virus
Conditions: Rep5.1 cells, 72 hours with drug
Summary of the method: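 Rep5.1 replicon cells (5000/well, DMEM-10 with 500 μg/ml G418) were given serially diluted drug 4 h after seeding. After 72 h, cells were fixed in methanol/acetone and HCV proteins detected by cell-based ELISA using replicon-specific patient plasma antibodies. IC50 is the concentration giving 50% protein decrease versus the no-drug control.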

[1] = concentration at which 50% of HCV proteins was decreased, Table 2, read-out: IC50
[2] = Hepatitis C virus, 72 h, concentration at which 50% of HCV proteins was decreased, Table 2, read-out: IC50
[3] = Hepatitis C virus, 72 h, decrease of HCV proteins measured by HCV antibody, Table 1, read-out: Level (IC50 values classified)

Row | Structure (SMILES) | IC50 [1] [µM] | IC50 [2] [µM] | IC50 [3] [µM]
1 | CC1=C(C(=O)OCCc2c(F)c(F)c(F)c(F)c2F)C(CF)NC(=S)N1 (stereo not drawn) [60′, 4-fluoromethyl-6-methyl-2-thioxo-1,2,3,4-tetrahydro-pyrimidine-5-carboxylic acid 2-pentafluorophenyl-ethyl ester] | 4 |  | 
2 | CC1=C(C(=O)OCC2COc3ccccc3O2)CNC(=S)N1 (stereo not drawn) [Compound 195, 6-methyl-2-thioxo-1,2,3,4-tetrahydro-pyrimidine-5-carboxylic acid 2,3-dihydro-benzo[1,4]dioxin-2-ylmethyl ester] |  | 2 | 1 to 10
3 | CC1=C(C(=O)OCCc2ccc(Cl)cc2Cl)C(CO)NC(=S)N1 (stereo not drawn) [43″, 4-hydroxymethyl-6-methyl-2-thioxo-1,2,3,4-tetrahydro-pyrimidine-5-carboxylic acid 2-(2,4-dichloro-phenyl)-ethyl ester] |  | < 0.4 | < 1
4 | CC1=C(C(=O)OC2CCCC2)CNC(=S)N1 [Compound 67, 6-methyl-2-thioxo-1,2,3,4-tetrahydro-pyrimidine-5-carboxylic acid cyclopentyl ester] |  | 6 | 1 to 10
5 | COC(=O)C(C)(C)COC(=O)OCC1NC(=S)NC(C)=C1C(=O)OCCc1cccc(Cl)c1 (stereo not drawn) [82″, 4-(2-methoxycarbonyl-2-methyl-propoxycarbonyloxymethyl)-6-methyl-2-thioxo-1,2,3,4-tetrahydro-pyrimidine-5-carboxylic acid 2-(3-chloro-phenyl)-ethyl ester] |  | 0.8 | < 1
6 | CC1=C(C(=O)OCCCCSc2nc3ccccc3s2)C(CO)NC(=S)N1 (stereo not drawn) [70″, 4-hydroxymethyl-6-methyl-2-thioxo-1,2,3,4-tetrahydro-pyrimidine-5-carboxylic acid 4-(benzothiazol-2-ylsulfanyl)-butyl ester] |  | 0.4 | < 1
7 | CC1=C(C(=O)OCCCc2ccccc2)CNC(=S)N1 [Compound 14, 6-methyl-2-thioxo-1,2,3,4-tetrahydro-pyrimidine-5-carboxylic acid 3-phenyl-propyl ester] |  | 0.2 | < 1
8 | COc1ccc(CCOC(=O)C2=C(C)NC(=S)NC2CO)cc1C (stereo not drawn) [69″, 4-hydroxymethyl-6-methyl-2-thioxo-1,2,3,4-tetrahydro-pyrimidine-5-carboxylic acid 2-(4-methoxy-3-methyl-phenyl)-ethyl ester] |  | 0.8 | < 1
9 | CC1=C(C(=O)OCCc2c(F)cccc2Cl)C(CF)NC(=S)N1 (stereo not drawn) [87′, 4-fluoromethyl-6-methyl-2-thioxo-1,2,3,4-tetrahydro-pyrimidine-5-carboxylic acid 2-(2-chloro-6-fluoro-phenyl)-ethyl ester] |  | < 0.4 | < 1
10 | CC1=C(C(=O)OCC=Cc2ccsc2)CNC(=S)N1 [Compound 244, 6-methyl-2-thioxo-1,2,3,4-tetrahydro-pyrimidine-5-carboxylic acid 3-thiophen-3-yl-allyl ester] |  | 0.5 | < 1
11 | CC1=C(C(=O)OCc2ccc(-c3cccs3)s2)CNC(=S)N1 [Compound 218, 6-methyl-2-thioxo-1,2,3,4-tetrahydro-pyrimidine-5-carboxylic acid[2,2′]bithiophenyl-5-ylmethyl ester] | < 0.4 |  | 
12 | CC1=C(C(=O)OCC2(c3ccc(Cl)cc3Cl)CC2)C(CO)NC(=S)N1 (stereo not drawn) [61″, 4-hydroxymethyl-6-methyl-2-thioxo-1,2,3,4-tetrahydro-pyrimidine-5-carboxylic acid 1-(2,4-dichloro-phenyl)-cyclopropylmethyl ester] |  | 16 | 10 to 20
13 | CC1=C(C(=O)OC2CCc3ccccc32)CNC(=S)N1 (stereo not drawn) [Compound 123, 6-methyl-2-thioxo-1,2,3,4-tetrahydro-pyrimidine-5-carboxylic acid indan-1-yl ester] |  | 8 | 1 to 10
14 | CC1=C(C(=O)OCc2cc(Cl)cc(Cl)c2)C(CF)NC(=S)N1 (stereo not drawn) [89′, 4-fluoromethyl-6-methyl-2-thioxo-1,2,3,4-tetrahydro-pyrimidine-5-carboxylic acid 3,5-dichloro-benzyl ester] |  | 0.4 | < 1
15 | COc1ccc(COC(=O)C2=C(C)NC(=S)NC2)c(C)c1C [Compound 138, 6-methyl-2-thioxo-1,2,3,4-tetrahydro-pyrimidine-5-carboxylic acid 4-methoxy-2,3-dimethyl-benzyl ester] |  | 20 | 10 to 20
16 | CC1=C(C(=O)OCCCCCC(=O)O)CNC(=S)N1 [18′, 6-methyl-2-thioxo-1,2,3,4-tetrahydro-pyrimidine-5-carboxylic acid 5-carboxy-pentyl ester] |  | > 100 | > 20
17 | CC1=C(C(=O)OCc2ccc(C)c([N+](=O)[O-])c2)CNC(=S)N1 [Compound 136, 6-methyl-2-thioxo-1,2,3,4-tetrahydro-pyrimidine-5-carboxylic acid 3-nitro-4-methyl-benzyl ester] |  | 0.6 | < 1
18 | CC1=C(C(=O)OCc2cc(Br)cs2)CNC(=S)N1 [Compound 204, 6-methyl-2-thioxo-1,2,3,4-tetrahydro-pyrimidine-5-carboxylic acid 4-bromo-thiophen-2-ylmethyl ester] |  | < 0.4 | < 1
19 | CC1=C(C(=O)OC2CCN(Cc3ccccc3)CC2)CNC(=S)N1 [Compound 86, 6-methyl-2-thioxo-1,2,3,4-tetrahydro-pyrimidine-5-carboxylic acid 1-benzyl-piperidin-4-yl ester] |  | > 100 | > 20
